Assay [1] concerns the target T1, Human immunodeficiency virus type 1 integrase (Human immunodeficiency virus 1, UniProt Q7ZJM1). Briefly: Inhibition of HIV1 integrase 3'-processing step.
The target in assay [2] is T1, Human immunodeficiency virus type 1 integrase. Nature of the assay: Inhibition of HIV1 integrase strand transfer step.

The record followed here is ChEMBL document CHEMBL1146924, “Beta-diketo acids with purine nucleobase scaffolds: novel, selective inhibitors of the strand transfer step of HIV integrase” (Bioorg Med Chem Lett, 2006).

Structures are written as SMILES.

T1 sequence (Q7ZJM1 whole entry): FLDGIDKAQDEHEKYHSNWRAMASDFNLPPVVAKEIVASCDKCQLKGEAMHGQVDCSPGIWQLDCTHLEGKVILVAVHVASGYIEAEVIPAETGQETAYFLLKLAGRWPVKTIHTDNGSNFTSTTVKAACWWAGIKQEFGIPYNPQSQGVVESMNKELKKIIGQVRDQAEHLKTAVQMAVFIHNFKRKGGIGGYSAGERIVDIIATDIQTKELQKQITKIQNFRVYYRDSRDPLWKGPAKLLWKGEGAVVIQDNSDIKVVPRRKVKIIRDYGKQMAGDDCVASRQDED

The IC50 is the concentration that inhibits the measured activity by half. For the compound `O=C(O)C(=O)/C=C(/O)c1nc2cncnc2n1Cc1ccccc1`, the results for the IC50 in assay [1] and in assay [2] were 100 µM and 10 µM, respectively.

Consider `O=C(O)C(=O)/C=C(/O)c1nc2c(=O)n(Cc3ccccc3)cnc2n1Cc1ccccc1`, for which the half-inhibitory concentration (IC50) in assay [1] came to 31.5 µM; in assay [2], 4.1 µM.

Turning to `O=C(O)C(=O)/C=C(\O)c1ncnc2c1ncn2Cc1ccccc1`, the IC50 in assay [1] was 1000 µM; in assay [2] it was 790 µM.

As to `O=C(O)C(=O)/C=C(\O)c1nc2c(ncn2Cc2ccccc2)c(=O)n1Cc1ccccc1`, the IC50 in assay [1] came out at 30 µM; in assay [2] it was 2.7 µM.
